The data set deals with L-1210 leukemia cells. Nature of the data set: L-1210 murine leukemia assay (increase in median life span). In kind it is in vivo, Mice. The following applies: for ILS%: increase in median life span vs untreated controls, at LD10 dose, 5 injections every other day starting one day after transplantation of 10^6 tumor cells/mouse; for LD10 Dose: mice, injected once per day every other day, total of 5 injections; for Cells Remaining: number of neoplastic cells remaining after treatment at LD10 dose, 10^6 tumor cells/mouse transplanted. The method, then:
This is a standard assay that is used to evaluate the efficacy of compounds as antineoplastic agents for treating humans. The assay is described by D. J. Hitchinson, D. C. Robinson, D. Martin, O. L. Ittenson and Dillenberg, Journal Cancer Research, (1962) 22:57-72. It is a procedure for evaluating a compound for increase in median life span in treated animals and unteated controls both infected with L-1210 leukemia cells. […] Mice are injected once per day every other day for a total of 5 injections starting one day after transplantation of 10^6 tumor cells/mouse. The results of this assay with several, 8,10-dideazaminopterin analogs were as follows:
It is apparent from the above results that the life spans of the mice were increased considerably by administration of the invention compound and that this compound has surprising activity when compared to the non-alkylated and n-propyl or methyl analogs. The % ILS data represent comparisons of log values, and thus differences in the % ILS which appear minor mask large differences in cytotoxic activity. Thus, as shown, the ethyl derivative is 40 times as effective as the unsubstituted compound and 100 times as effective as the n-propyl derivative in terms of reducing the number of neoplastic cells; i.e., e.g., the number of cells remaining after 10-ethyl analog treatment is only 1/40 and 1/100 of that remaining from treatment with the above analogs, respectively. The assay and these conclusions are described by Schabel, F. M., Symposium on Proliferation and Spread of Neoplastic Cells, M. D. Anderson, Tumor Institute, Houston, Texas (1968), p. 379 ff.

With 10-Methyl-8,10-dideazaminopterin, the ILS% result is recorded as “+203%”, the “LD10 Dose” value is listed as 0.6 Mg/Kg and the “Cells Remaining” value is listed as 1000.
With “10-Propyl-8,10-dideazaminopterin [10-n-propyl-8,10-dideazaminopterin]”, the ILS% result is listed as “+176%”, the “LD10 Dose” value was determined as 6.0 Mg/Kg and the “Cells Remaining” value was 10,000.
For the compound 10-ethyl-8,10-dideazaminopterin, the ILS% result is given as “+235%”, the “LD10 Dose” value is on record as 1.5 Mg/Kg and the “Cells Remaining” value amounted to 100. Moreover, where the note is “relative to 8,10-dideazaminopterin, ratio of cells remaining”, the “times as effective as the unsubstituted compound in terms of reducing the number of neoplastic cells” value amounted to 40 times. Further, the “times as effective as the n-propyl derivative in terms of reducing the number of neoplastic cells” value (relative to 10-n-propyl-8,10-dideazaminopterin, ratio of cells remaining) is listed as 100 times.
On to `Nc1nc(N)c2nc(CCc3ccc(C(=O)N[C@@H](CCC(=O)O)C(=O)O)cc3)ccc2n1` [8,10-dideazaminopterin], for which the ILS% entry is on record as “+189%”, the “LD10 Dose” value is recorded as 0.75 Mg/Kg and the “Cells Remaining” value was found to be 4000.
Take `CN(Cc1cnc2nc(N)nc(N)c2n1)c1ccc(C(=O)N[C@@H](CCC(=O)O)C(=O)O)cc1` [Methotrexate]: the ILS% entry is reported as “+187%” and the “LD10 Dose” value worked out at 15 Mg/Kg.

The record behind these values is EP0166726B1, “10-ETHYL-8,10-DIDEAZAMINOPTERINS” (SRI INTERNATIONAL, priority 1983, dated 1985).
